# ChEMBL document CHEMBL1201862, “PubChem BioAssay data set” (2004)
#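 96-well plates; 48 h exposure; 5 concentrations. Endpoints by linear interpolation between flanking doses. Not reached: highest tested concentration assigned. Abbreviation: GI50, concentration required for 50% inhibition of growth.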 The source made the active and inactive calls. Cut-off read from the data, not from the text of the source: active = GI50 up to about 1.1 µM and inactive = higher.
# Assays:
# Assay in all cases: inhibition of tumour cell growth, NCI panel, 48 h
# CAKI-1 = tested on: CAKI-1
# DU-145 = tested on: DU-145
# HCC 2998 = tested on: HCC 2998
# HT-29 = tested on: HT-29
# K562 = tested on: K562
# LOX IMVI = tested on: LOX IMVI
# MCF7 = tested on: MCF7
# Malme-3M = tested on: Malme-3M
# OVCAR-8 = tested on: OVCAR-8
# PC-3 = tested on: PC-3
# SF-268 = tested on: SF-268
# SK-MEL-2 = tested on: SK-MEL-2
# SN12C = tested on: SN12C
# SNB-19 = tested on: SNB-19
# SNB-75 = tested on: SNB-75
# SR = tested on: SR
# SW-620 = tested on: SW-620
# U-251 = tested on: U-251
# UACC-62 = tested on: UACC-62
# HL-60 = tested on: HL-60
Compound,GI50 (CAKI-1),GI50 (DU-145),GI50 (HCC 2998),GI50 (HT-29),GI50 (K562),GI50 (LOX IMVI),GI50 (MCF7),GI50 (Malme-3M),GI50 (OVCAR-8),GI50 (PC-3),GI50 (SF-268),GI50 (SK-MEL-2),GI50 (SN12C),GI50 (SNB-19),GI50 (SNB-75),GI50 (SR),GI50 (SW-620),GI50 (U-251),GI50 (UACC-62),GI50 (HL-60)
C[n+]1c2ccccc2c(C(=O)Nc2ccc(S(=O)(=O)Nc3ncccn3)cc2)c2ccccc21,> 100 µM (inactive),> 100 µM (inactive),> 100 µM (inactive),> 100 µM (inactive),97.5 µM (inactive),79.3 µM (inactive),> 100 µM (inactive),> 100 µM (inactive),> 100 µM (inactive),57 µM (inactive),> 100 µM (inactive),> 100 µM (inactive),> 100 µM (inactive),> 100 µM (inactive),72.8 µM (inactive),> 100 µM (inactive),> 100 µM (inactive),> 100 µM (inactive),> 100 µM (inactive),–
Cc1ccccc1C(=O)NC(O)(C(F)(F)F)C(F)(F)F,> 100 µM (inactive),> 100 µM (inactive),> 100 µM (inactive),91.2 µM (inactive),57.9 µM (inactive),> 100 µM (inactive),> 100 µM (inactive),28.2 µM (inactive),> 100 µM (inactive),25.5 µM (inactive),> 100 µM (inactive),56.1 µM (inactive),> 100 µM (inactive),> 100 µM (inactive),0.0302 µM (active),–,> 100 µM (inactive),> 100 µM (inactive),–,54.7 µM (inactive)
Cc1ccc(S(=O)(=O)c2scc(-c3ccccc3)c2C)cc1,> 100 µM (inactive),93.5 µM (inactive),> 100 µM (inactive),> 100 µM (inactive),53 µM (inactive),64.3 µM (inactive),61.1 µM (inactive),> 100 µM (inactive),> 100 µM (inactive),89.3 µM (inactive),> 100 µM (inactive),62.8 µM (inactive),> 100 µM (inactive),> 100 µM (inactive),> 100 µM (inactive),–,> 100 µM (inactive),> 100 µM (inactive),> 100 µM (inactive),45 µM (inactive)
N=c1sc(N2CCOCC2)nn1CC(=O)c1ccccc1,> 100 µM (inactive),> 100 µM (inactive),> 100 µM (inactive),> 100 µM (inactive),> 100 µM (inactive),–,53.5 µM (inactive),> 100 µM (inactive),> 100 µM (inactive),96.8 µM (inactive),> 100 µM (inactive),> 100 µM (inactive),> 100 µM (inactive),> 100 µM (inactive),> 100 µM (inactive),–,> 100 µM (inactive),> 100 µM (inactive),> 100 µM (inactive),> 100 µM (inactive)
C/C1=C\[C@H](C)C[C@H](C)OC(=O)C[C@H](c2ccc(O)cc2)NC(=O)[C@H](Cc2ccc(O)c(Br)c2)N(C)C(=O)[C@H](C)NC(=O)[C@@H](C)C1,–,> 25 µM (inactive),–,> 25 µM (inactive),> 25 µM (inactive),> 25 µM (inactive),> 25 µM (inactive),> 25 µM (inactive),> 25 µM (inactive),> 25 µM (inactive),> 25 µM (inactive),> 25 µM (inactive),> 25 µM (inactive),> 25 µM (inactive),> 25 µM (inactive),> 25 µM (inactive),> 25 µM (inactive),> 25 µM (inactive),> 25 µM (inactive),–
CCN(CC)CCSc1c(C(C)=O)c(=O)n(-c2ccccc2)c(=S)n1-c1ccccc1,10.2 µM (inactive),3.08 µM (inactive),11.9 µM (inactive),16.7 µM (inactive),3.09 µM (inactive),3.32 µM (inactive),3.18 µM (inactive),6.1 µM (inactive),3.46 µM (inactive),4.04 µM (inactive),15.8 µM (inactive),15.5 µM (inactive),14.4 µM (inactive),21.1 µM (inactive),33.3 µM (inactive),–,2.25 µM (inactive),17.7 µM (inactive),14.4 µM (inactive),2.52 µM (inactive)
Cc1nc(-c2ccccc2)c(-c2ccccc2)s1,20.2 µM (inactive),32 µM (inactive),12.7 µM (inactive),17.9 µM (inactive),18.8 µM (inactive),16.4 µM (inactive),25.3 µM (inactive),21.4 µM (inactive),27.1 µM (inactive),14.2 µM (inactive),25.6 µM (inactive),16.7 µM (inactive),37.9 µM (inactive),31 µM (inactive),23.4 µM (inactive),–,15.7 µM (inactive),15.2 µM (inactive),18 µM (inactive),10 µM (inactive)
